{
  "source": "paper PMC4480820",
  "about": "“Modafinil and its metabolites enhance the anticonvulsant action of classical antiepileptic drugs in the mouse maximal electroshock-induced seizure model” (Psychopharmacology, 2015)",
  "key": {"[1]": {"test_system": "electroconvulsions in mice", "set-up": "method as in Chen et al. [2007]", "conditions": "ref Chen et al. [2007], cited from earlier work"}, "[2]": {"test_system": "skeletal muscular strength in mice", "test": "Grip strength test", "format": "in vivo, Swiss mice", "conditions": "compound alone 50 mg kg^−1 i.p. + vehicle; mean ± S.E.M.", "description": "The effects of combinations of modafinil (50 mg kg^−1), sulfone and acid metabolites (50 mg kg^−1), or GBR 12909 (25 mg kg^−1) with different classical AEDs at doses corresponding to their ED50 values from the MES test on skeletal muscular strength in mice were quantified by the grip strength test of Meyer et al. ([1979]). The grip strength apparatus (BioSeb, Chaville, France) comprised a wire grid (8 × 8 cm) connected to an isometric force transducer (dynamometer). The mice were lifted by the tails so that their forepaws could grasp the grid. The mice were then gently pulled backward by the tail until the grid was released. The maximal force exerted by the mouse before losing grip was recorded. The mean of three measurements for each animal was calculated, and subsequently, the mean maximal force of eight animals per group was determined. The muscular strength in mice is expressed in N (newtons) as the means ± S.E.M. of at least eight determinations."}, "[3]": {"test_system": "threshold for electroconvulsions in mice", "test": "Maximal electroshock seizure threshold (MEST) test"}, "[4]": {"test_system": "locomotor activation in mice", "set-up": "method as in Paterson et al. [2010]", "conditions": "ref Paterson et al. [2010]; cited from earlier work"}, "[5]": {"test_system": "MES-induced seizures in mice", "set-up": "method as in Chatterjie et al. [2004]", "conditions": "300 mg kg^−1 i.p., administered alone, ref Chatterjie et al. [2004]; cited from earlier work"}, "CYP3A4/5": {"test_system": "CYP3A4/5", "conditions": "human liver microsomes; ref Robertson and Hellriegel [2003]; cited from earlier work"}, "[6]": {"test_system": "passive avoidance performance in mice", "test": "Step-through passive avoidance task", "format": "in vivo, Swiss mice", "conditions": "compound alone 50 mg kg^−1 i.p. + vehicle; median (25th; 75th percentiles); observed up to 180 s", "description": "The effects of combinations of modafinil (50 mg kg^−1), its metabolites (50 mg kg^−1), or GBR 12909 (25 mg kg^−1) with different classical AEDs were quantified by the step-through passive avoidance task of Venault et al. ([1986]). AEDs were administered at doses corresponding to their ED50 values from the MES test. Each animal received an AED either alone or in combination either with modafinil, sulfone, and acid metabolites or with GBR 12909 on the first day before training. The time before commencement of the training session (after drug administration) in the step-through passive avoidance task was identical to that for the MES test. Subsequently, the animals were placed in an illuminated box (10 × 13 × 15 cm) connected to a larger dark box (25 × 20 × 15 cm) equipped with an electric grid floor. Entrance of the animals to the dark box was punished by an adequate electric footshock (0.6 mA for 2 s). […] On the following day (24 h later), the pretrained animals were placed again into the illuminated box and observed for up to 180 s. Mice that avoided the dark compartment for 180 s were considered as having remembered the task. The time the mice took to enter the dark box was noted, and the median latencies (retention times) with 25th and 75th percentiles were calculated."}, "[7]": {"test_system": "motor coordination in mice", "test": "Chimney test", "format": "in vivo, Swiss mice", "conditions": "compound alone 50 mg kg^−1 i.p. + vehicle; n = 8 mice/group", "source_text": "The chimney test of Boissier et al. ([1960]) was used to quantify the adverse effect potential of classical AEDs administered in combination with modafinil, its metabolites, or GBR 12909. In this test, the animals had to climb backwards up a plastic tube (3-cm inner diameter, 30 cm long), and impairment of motor performance was indicated by the inability of the mice to climb backward up the transparent tube within 60 s."}, "CYP2C9": {"test_system": "CYP2C9", "conditions": "human hepatocytes; ref Robertson and Hellriegel [2003]; cited from earlier work"}},
  "note": "Like-named read-outs stand apart in the source and are kept apart here.",
  "data": [
    {"smiles": "NC(=O)C[S+]([O-])C(c1ccccc1)c1ccccc1", "note": "(stereo not shown) [MOD, diphenylmethylsulfinylacetamide]", "values": [
      {"measurement": "Mice protected against electroconvulsions", "setting": "[1]; 22.5 mg kg^−1 i.p.", "value": 50, "unit": "%"},
      {"measurement": "Mice protected against electroconvulsions", "setting": "[1]; 45 mg kg^−1 i.p.", "value": 70, "unit": "%"},
      {"measurement": "Mice protected against electroconvulsions", "setting": "[1]; 90 mg kg^−1 i.p.", "value": 90, "unit": "%"},
      {"measurement": "Mice protected against electroconvulsions", "setting": "[1]; 180 mg kg^−1 i.p.", "value": 70, "unit": "%"},
      {"measurement": "Grip strength", "setting": "[2]", "value": "0.908 ± 0.053", "unit": "N"},
      {"measurement": "TI (percentage of threshold increase over vehicle control)", "setting": "[3]; 12.5 mg kg^−1 i.p.", "value": "−2.78", "unit": "%"},
      {"measurement": "TI (percentage of threshold increase over vehicle control)", "setting": "[3]; 25 mg kg^−1 i.p.", "value": 2.78, "unit": "%"},
      {"measurement": "TI (percentage of threshold increase over vehicle control)", "setting": "[3]; 50 mg kg^−1 i.p.", "value": 22.88, "unit": "%"},
      {"measurement": "TI (percentage of threshold increase over vehicle control)", "setting": "[3]; 75 mg kg^−1 i.p.", "value": 35.46, "unit": "%"},
      {"measurement": "TID20 (dose that increases threshold by 20 %)", "setting": "[3]; i.p., 30 min before test, from linear regression of dose vs threshold increase", "value": 49.12, "unit": "mg/kg"},
      {"measurement": "Dose eliciting equivalent locomotor activation", "setting": "[4]", "value": 150, "unit": "mg/kg"},
      {"measurement": "Protection against MES-induced seizures", "setting": "[5]", "value": 100, "unit": "%"},
      {"measurement": "Inhibition of CYP3A4/5", "setting": "CYP3A4/5", "value": "weak inhibition"},
      {"measurement": "Retention time", "setting": "[6]", "value": "180 (123.5; 180) s"},
      {"measurement": "Motor coordination impairment (number of animals showing impairment in the chimney test)", "setting": "[7]", "value": "0/8"},
      {"measurement": "Inhibition of CYP2C9", "setting": "CYP2C9", "value": "inhibit"}
    ]}
  ]
}
